Laboratory results from paper PMC10144242, “Design, Synthesis, In Vitro, and In Silico Insights of 5-(Substituted benzylidene)-2-phenylthiazol-4(5H)-one Derivatives: A Novel Class of Anti-Melanogenic Compounds” (Molecules, 2023).
pKi: −log10 of the molar value.

What was measured:
mushroom tyrosinase = mushroom tyrosinase (Agaricus bisporus, UniProt C7FF04); experiment: Kinetic studies on mushroom tyrosinase inhibition (Lineweaver–Burk and Dixon plots, L-DOPA substrate); format: biochemical; set-up: purchased Sigma-Aldrich; conditions: for pKi: Dixon plots, read-out: Ki (inhibition constant); for Inhibition type: Lineweaver–Burk plot
Chain of mushroom tyrosinase (C7FF04 1-392 limits assumed): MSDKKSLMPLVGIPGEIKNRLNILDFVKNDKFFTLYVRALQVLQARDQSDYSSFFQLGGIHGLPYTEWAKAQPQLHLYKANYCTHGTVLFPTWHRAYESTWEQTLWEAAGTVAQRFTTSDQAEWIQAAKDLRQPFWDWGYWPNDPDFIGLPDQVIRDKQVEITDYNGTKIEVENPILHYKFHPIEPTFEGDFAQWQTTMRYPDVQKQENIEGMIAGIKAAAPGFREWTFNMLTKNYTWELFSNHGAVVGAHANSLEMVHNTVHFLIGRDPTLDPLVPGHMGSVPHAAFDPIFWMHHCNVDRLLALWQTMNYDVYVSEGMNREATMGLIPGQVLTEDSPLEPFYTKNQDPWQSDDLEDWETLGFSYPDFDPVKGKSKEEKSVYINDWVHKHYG
Description: As depicted in Figure 2, the mechanisms of tyrosinase inhibition were analyzed using Lineweaver–Burk plots. […] Each of the four straight lines produced at each inhibitor concentration converged to a single point on the y-axis. […] In contrast, in derivative 3, four straight lines generated at each inhibitor concentration intersected at a point in the second quadrant. According to the Lineweaver–Burk plot, as the inhibitor concentration increased, the Vmax value of 3 decreased, but the KM value increased.
To determine the Ki (inhibition constant) values of (Z)-BPT derivatives 1–3, Lineweaver–Burk plots for 1–3 were transformed into the corresponding Dixon plots (Figure 3). Each Dixon plot obtained from each Lineweaver–Burk plot produced four straight lines that intersected at one point in the second quadrant. The vertical lines from the merge point to the x-axis provide the Ki value of each (Z)-BPT derivative.
To determine the mode of action, Lineweaver–Burk plots of (Z)-BPT derivatives 1–3 were acquired. In brief, 10 µL of (Z)-BPT derivatives 1–3 (final concentrations:0, 3, 6, or 12 µM for 1; 0, 0.05, 0.1, or 0.2 µM for 2; 0, 2.5, 5, or 10 µM for 3) was added to a 96-well plate containing a substrate mixture (170 µL) consisting of an aqueous solution of L-dopa at final concentrations of 0.5, 1.0, 2.0, or 4.0 mM and 14.7 mM potassium phosphate buffer (pH 6.5), and a mushroom tyrosinase aqueous solution (20 µL, 20 units). Using a microplate reader (VersaMax^TM, Molecular Devices, Sunnyvale, CA, USA) to measure the increase in absorbance at a wavelength of 492 nm (ΔOD492/min), the initial rate of dopachrome synthesis in the reaction mixture was estimated. Using five different concentrations of L-dopa, Lineweaver–Burk plots (inverse of the response rate (1/V) vs. inverse of L-dopa concentration (1/(S)) were created. The convergence points of the four plot lines were used to define the mode of action of tyrosinase inhibition.
Figure 2 Lineweaver–Burk plots for the inhibition of mushroom tyrosinase activity by (Z)-BPT derivatives 1–3. […] Three independent experiments with five different concentrations (0.5, 1, 2, 4, and 8 mM) of an L-DOPA substrate were used to measure the augmented dopachrome optical density per minute at 492 nm. The data are shown as mean values of 1/V (an inverse of that optical density per minute). The (Z)-BPT derivatives were used at concentrations of 0 (filled circles), 3 (unfilled circles), 6 (filled triangles), and 12 µM (unfilled triangles) for 1; 0 (filled circles), 0.05 (unfilled circles), 0.1 (filled triangles), and 0.2 µM (unfilled triangles) for 2; and 0 (filled circles), 2.5 (unfilled circles), 5 (filled triangles), and 10 µM (unfilled triangles) for 3. Each experiment was run independently in triplicates.
Figure 3 Dixon plots for the inhibition of mushroom tyrosinase activity by (Z)-BPT derivatives 1–3. The Ki values of (Z)-BPT derivatives 1–3 were obtained from the absolute values of the x-coordinate where four straight lines converged at one point. Three independent experiments with four different concentrations of (Z)-BPT derivatives were conducted to measure the augmented dopachrome optical density per minute at 492 nm. The data are shown as the mean values of 1/V (an inverse of that optical density per minute). The (Z)-BPT derivatives were used at concentrations of 0, 3, 6, and 12 µM for 1; 0, 0.05, 0.1, and 0.2 µM for 2; and 0, 2.5, 5, and 10 µM for 3. The experiments were performed at four different concentrations (0.5, 1, 2, and 4 mM) of L-DOPA. Each experiment was run independently in triplicates.

[1] = DPPH radical scavenging assay; conditions: 1 mM, 30 min in the dark
Description: The 2,2-diphenyl-1-picrylhydrazyl (DPPH) radical scavenging capacity of the (Z)-BPT derivatives (1 mM) was investigated using L-ascorbic acid (1 mM, vitamin C) as a positive control. […] L-Ascorbic acid scavenged 97.1% of the DPPH radical, whereas (Z)-BPT derivative 1 with a 4-hydroxyl substituent on the β-phenyl ring scavenged 46.5% of the DPPH radical.
The antioxidant properties of (Z)-BPT derivatives 1–14 against DPPH (2,2-diphenyl-1-picrylhydrazyl) radicals were examined using a DPPH radical scavenging assay, as previously described with minor modifications. DPPH solution (180 µL, 0.2 mM) in methanol was mixed with a (Z)-BPT derivative solution (1–14, 20 µL, 10 mM) in dimethyl sulfoxide in each well of a 96-well plate, and the mixture was kept for 30 min in the dark at room temperature. The absorbance at 517 nm was measured using a VersaMax ™ microplate reader (Molecular Devices, Sunnyvale, CA, USA). The capacity of the derivatives to scavenge DPPH radicals was compared with that of L-ascorbic acid, which was used as the positive control. Each experiment was run independently in triplicates.
Figure 10 The radical scavenging effect of (Z)-BPT derivatives on DPPH. The DPPH radical scavenging activities of test samples (1 mM) were assayed after being left in the dark for 30 min. Distilled water and dimethyl sulfoxide (DMSO) were utilized as the solvents for the positive control L-ascorbic acid and the (Z)-BPT derivatives, respectively. Asterisks (***) represent a significant difference between L-ascorbic acid and the (Z)-BPT derivatives, and results are expressed as the mean ± standard error of three different experiments. *** p < 0.001.

B16F10 cells = experiment: Melanin content (anti-melanogenesis) assay in IBMX/α-MSH-stimulated cells; format: cell-based, murine; conditions: 72 h; for effect on cellular melanin content: B16F10, 20 µM, IBMX + α-MSH; for effect on cellular melanin content increased by stimulators: B16F10, 5, 10, 20 µM, IBMX 200 µM + α-MSH 1 µM
Description: Cells were exposed to four different concentrations (0, 5, 10, and 20 µM) of 1 and 2 prior to treatment with stimulators (3-isobutyl-1-methylxanthine (IBMX, 200 µM), and α-melanocyte stimulating hormone (α-MSH, 1 µM)). After 72 h of incubation, the effects of 1 and 2 on melanin production were determined. Cellular melanin levels were assessed by measuring melanin levels in cell lysates.
The melanin content assay standard procedure was used to investigate the anti-melanogenic effect of (Z)-BPT derivatives 1 and 2 with a few minor modifications. Briefly, B16F10 melanoma cells were seeded in each well of a 6-well plate at a density of 1 × 10^5 cells/well and allowed to adhere to the well bottom under conditions that were identical to those used for cell culture. […] For 72 h, B16F10 cells were incubated at 37 °C in a humid environment containing 5% CO2 after being treated with IBMX and α-MSH. To determine the intracellular melanin content, B16F10 cells stimulated with IBMX and α-MSH for 72 h were rinsed twice with PBS and incubated in 200 µL 1N-NaOH solution including 10% dimethyl sulfoxide (DMSO) at 60 °C. The cell lysates were transferred to a 96-well plate after an hour of incubation, and the absorbance of the melanin content was calculated using a VersaMax^TM microplate reader (Molecular Devices, Sunnyvale, CA, USA) to determine intracellular melanin levels. Each experiment was performed independently in triplicates.
Figure 7 Effects of (Z)-BPT derivatives 1 and 2 on cellular melanin levels in B16F10 cells. […] (A) Derivative 1 and (B) derivative 2.

Row | Compound | pKi (mushroom tyrosinase) | Inhibition type (mushroom tyrosinase) | DPPH radical scavenging activity [1] | effect on cellular melanin content (B16F10 cells) | effect on cellular melanin content increased by stimulators (B16F10 cells)
1 | O=C1N=C(c2ccccc2)S/C1=C\c1ccc(O)cc1O [Compound 2, (Z)-5-(2,4-Dihydroxybenzylidene)-2-phenylthiazol-4(5H)-one] | 7.00 | Competitive | 66.9% | below those of the non-treated control | significantly and dose-dependently diminished
2 | O=C1N=C(c2ccccc2)S/C1=C\c1ccc(O)cc1 [Compound 1, (Z)-5-(4-Hydroxybenzylidene)-2-phenylthiazol-4(5H)-one] | 5.05 | Competitive | 46.5% | more effectively than kojic acid | significantly and dose-dependently diminished
